Results: PMC10982501, “Synthesis and biological evaluation of novel benzothiazole derivatives as potential anticancer and antiinflammatory agents” (Frontiers in Chemistry, 2024)

system: not listed separately; experiment: Oil-water partition coefficient (log P) measurement; type: physicochemical; settings: n-octanol/water, room temperature
Method: The partition coefficient between n-octanol and water (log Po/w) is the classical descriptor for Lipophilicity ([Daina et al., 2017]). The test methodology followed previously published protocols ([Wang et al., 2021]). At room temperature, two large Erlenmeyer flasks were taken and filled with n-octanol and water, respectively. The flasks were placed in a constant temperature shaker at 150 rpm for 24 h to saturate the solvents. The mixtures were then transferred to separating funnels under normal pressure to obtain water-saturated n-octanol and n-octanol-saturated water for subsequent use. The target compound (2 mg) was accurately weighed and placed in a 2 mL brown volumetric flask. Anhydrous methanol was added to ultrasonically dissolve the compound, and the mixture was diluted to volume and thoroughly shaken to prepare a 1 mg/mL stock solution. The stock solution was further diluted to obtain 1, 1.5, 2, 2.5, 5 and 10 μg/mL reference solutions for construction of a standard curve using a UV-visible spectrophotometer. An excess amount of the analyte was dissolved in water-saturated n-octanol, and the mixture was shaken at 150 rpm for 24 h at constant temperature to obtain a saturated solution. The saturated solution was allowed to stand, centrifuged, and 1 mL of the supernatant was transferred to a 4 mL centrifuge tube. N-octanol saturated water (1 mL) was added, and the mixture was shaken at 150 rpm for 24 h at constant temperature. After standing for 8 h, the mixture was centrifuged. Appropriate amounts of the n-octanol phase before and after equilibration were diluted with methanol, and concentrations were determined from the standard curve to obtain C0 and C1. The concentration in the n-octanol saturated aqueous phase, Cw, was calculated as Cw = C0 - C1. Thus, log Po/w = […].

| Compound | logP |
| --- | --- |
| COc1ccc(C(=O)Nc2nc3ccc(Cl)cc3s2)cc1 [C5, N-(6-chlorobenzo[d]thiazol-2-yl)-4-methoxybenzamide] | 2.87 ± 0.15 |
| O=C(Nc1nc2ccc(Cl)cc2s1)c1ccccc1 [C6, N-(6-chlorobenzo[d]thiazol-2-yl)benzamide] | 3.05 ± 0.17 |
| O=C(Nc1nc2ccc(Cl)cc2s1)c1ccccc1F [C7, N-(6-chlorobenzo[d]thiazol-2-yl)-2-fluorobenzamide] | 2.9 ± 0.32 |
| COc1cc(CN(Cc2cc(OC)cc(OC)c2)c2nc3ccc(Cl)cc3s2)cc(OC)c1 [D1, 6-chloro-N,N-bis(3,5-dimethoxybenzyl)benzo[d]thiazol-2-amine] | 5.69 ± 0.25 |

Now from value to compound:

| logP | Compound |
| --- | --- |
| 2.49 ± 0.39 | COc1ccc(C(=O)Nc2nc3ccc(F)cc3s2)cc1OC [C3, N-(6-fluorobenzo[d]thiazol-2-yl)-3,4-dimethoxybenzamide] |
| 3.06 ± 0.23 | O=C(Nc1nc2ccc(F)cc2s1)c1ccc([N+](=O)[O-])cc1 [C4, N-(6-fluorobenzo[d]thiazol-2-yl)-4-nitrobenzamide] |

system: A431 cells; experiment: MTT cell proliferation assay, A431; type: cell-based, human; settings: 10 μM, 48 h
Method: (§1) Beas-2b, A431, A549 and H1299 cells were cultured in 96-well plates (5 × 10^3 cells/well) for 16 h, respectively. Subsequently, positive compound 4i and 25 newly synthesized compounds were added at a final concentration of 10 μM or gradient concentrations (0.01, 0.1, 0.5, 1, 5 and 10 μM), co-incubated with the cells for 48 h. MTT (M8180, Solarbio) solutions (5 mg/mL) were then added and incubated for 4 h in the dark. Then, formazan crystals were dissolved with DMSO (D8371, Solarbio), followed by shaking on a shaker (DRAGONLAB, China) for 10 min. Finally, absorbance at 490 nm wavelength for each well was measured with Microplate reader (Molecular Devices, United States) ([Tang et al., 2020]; [Lee et al., 2021]). The results are expressed as mean ± SD from three independent experiments. Cells inhibition rates or IC50 values were calculated using GraphPad Prism 9.5.0.

| Compound | A431 cells inhibition rate |
| --- | --- |
| COc1ccc(C(=O)Nc2nc3ccc(Cl)cc3s2)cc1 [C5, N-(6-chlorobenzo[d]thiazol-2-yl)-4-methoxybenzamide] | 55.67 ± 2.34% |
| O=C(Nc1nc2ccc(Cl)cc2s1)c1ccccc1 [C6, N-(6-chlorobenzo[d]thiazol-2-yl)benzamide] | 57.73 ± 2.12% |

same assay, conditions: Homo sapiens, A-431, 48 h, 10 μM, read-out: A431 cells inhibition rate

| Compound | inhibition at 10 µM |
| --- | --- |
| COc1ccc(C(=O)Nc2nc3ccc(F)cc3s2)cc1OC [C3, N-(6-fluorobenzo[d]thiazol-2-yl)-3,4-dimethoxybenzamide] | 12.3 ± 1.51% |
| O=C(Nc1nc2ccc(F)cc2s1)c1ccc([N+](=O)[O-])cc1 [C4, N-(6-fluorobenzo[d]thiazol-2-yl)-4-nitrobenzamide] | 43.1 ± 1.45% |
| COc1ccc(C(=O)Nc2nc3ccc(Cl)cc3s2)cc1 [C5, N-(6-chlorobenzo[d]thiazol-2-yl)-4-methoxybenzamide] | > 50% |
| O=C(Nc1nc2ccc(Cl)cc2s1)c1ccccc1 [C6, N-(6-chlorobenzo[d]thiazol-2-yl)benzamide] | > 50% |
| O=C(Nc1nc2ccc(Cl)cc2s1)c1ccccc1F [C7, N-(6-chlorobenzo[d]thiazol-2-yl)-2-fluorobenzamide] | 40.4 ± 1.33% |
| COc1cc(CN(Cc2cc(OC)cc(OC)c2)c2nc3ccc(Cl)cc3s2)cc(OC)c1 [D1, 6-chloro-N,N-bis(3,5-dimethoxybenzyl)benzo[d]thiazol-2-amine] | 38.7 ± 1.56% |

same assay, conditions: Homo sapiens, A-431, 48 h, read-out: IC50 (mean ± SD) A431

| Compound | IC50 |
| --- | --- |
| COc1ccc(C(=O)Nc2nc3ccc(Cl)cc3s2)cc1 [C5, N-(6-chlorobenzo[d]thiazol-2-yl)-4-methoxybenzamide] | 4.35 ± 0.9 µM |
| O=C(Nc1nc2ccc(Cl)cc2s1)c1ccccc1 [C6, N-(6-chlorobenzo[d]thiazol-2-yl)benzamide] | 8.4 ± 1.06 µM |

system: A549 cells; experiment: MTT cell proliferation assay, A549; type: cell-based, human; settings: 10 μM, 48 h
Method: as §1

| Compound | A549 cells inhibition rate |
| --- | --- |
| COc1ccc(C(=O)Nc2nc3ccc(Cl)cc3s2)cc1 [C5, N-(6-chlorobenzo[d]thiazol-2-yl)-4-methoxybenzamide] | 56.33 ± 2.96% |
| O=C(Nc1nc2ccc(Cl)cc2s1)c1ccccc1 [C6, N-(6-chlorobenzo[d]thiazol-2-yl)benzamide] | 55.56 ± 2.78% |

same assay, conditions: Homo sapiens, A549, 48 h, 10 μM, read-out: A549 cells inhibition rate

| Compound | inhibition at 10 µM |
| --- | --- |
| COc1ccc(C(=O)Nc2nc3ccc(F)cc3s2)cc1OC [C3, N-(6-fluorobenzo[d]thiazol-2-yl)-3,4-dimethoxybenzamide] | 4.38 ± 0.35% |
| O=C(Nc1nc2ccc(F)cc2s1)c1ccc([N+](=O)[O-])cc1 [C4, N-(6-fluorobenzo[d]thiazol-2-yl)-4-nitrobenzamide] | 35.3 ± 1.82% |
| COc1ccc(C(=O)Nc2nc3ccc(Cl)cc3s2)cc1 [C5, N-(6-chlorobenzo[d]thiazol-2-yl)-4-methoxybenzamide] | > 50% |
| O=C(Nc1nc2ccc(Cl)cc2s1)c1ccccc1 [C6, N-(6-chlorobenzo[d]thiazol-2-yl)benzamide] | > 50% |
| O=C(Nc1nc2ccc(Cl)cc2s1)c1ccccc1F [C7, N-(6-chlorobenzo[d]thiazol-2-yl)-2-fluorobenzamide] | 44.6 ± 0.94% |
| COc1cc(CN(Cc2cc(OC)cc(OC)c2)c2nc3ccc(Cl)cc3s2)cc(OC)c1 [D1, 6-chloro-N,N-bis(3,5-dimethoxybenzyl)benzo[d]thiazol-2-amine] | 15.4 ± 3.46% |

same assay, conditions: Homo sapiens, A549, 48 h, read-out: IC50 (mean ± SD) A549

| Compound | IC50 |
| --- | --- |
| COc1ccc(C(=O)Nc2nc3ccc(Cl)cc3s2)cc1 [C5, N-(6-chlorobenzo[d]thiazol-2-yl)-4-methoxybenzamide] | 9.82 ± 0.98 µM |
| O=C(Nc1nc2ccc(Cl)cc2s1)c1ccccc1 [C6, N-(6-chlorobenzo[d]thiazol-2-yl)benzamide] | 8.17 ± 0.4 µM |

system: H1299 cells; experiment: MTT cell proliferation assay, H1299; type: cell-based, human; settings: 10 μM, 48 h
Method: as §1

| Compound | H1299 cells inhibition rate |
| --- | --- |
| COc1ccc(C(=O)Nc2nc3ccc(Cl)cc3s2)cc1 [C5, N-(6-chlorobenzo[d]thiazol-2-yl)-4-methoxybenzamide] | 51.98 ± 0.24% |
| O=C(Nc1nc2ccc(Cl)cc2s1)c1ccccc1 [C6, N-(6-chlorobenzo[d]thiazol-2-yl)benzamide] | 59.72 ± 1.84% |

same assay, conditions: Homo sapiens, NCI-H1299, 48 h, 10 μM, read-out: H1299 cells inhibition rate

| Compound | inhibition at 10 µM |
| --- | --- |
| COc1ccc(C(=O)Nc2nc3ccc(F)cc3s2)cc1OC [C3, N-(6-fluorobenzo[d]thiazol-2-yl)-3,4-dimethoxybenzamide] | 18 ± 2.52% |
| O=C(Nc1nc2ccc(F)cc2s1)c1ccc([N+](=O)[O-])cc1 [C4, N-(6-fluorobenzo[d]thiazol-2-yl)-4-nitrobenzamide] | 45.2 ± 0.55% |
| COc1ccc(C(=O)Nc2nc3ccc(Cl)cc3s2)cc1 [C5, N-(6-chlorobenzo[d]thiazol-2-yl)-4-methoxybenzamide] | > 50% |
| O=C(Nc1nc2ccc(Cl)cc2s1)c1ccccc1 [C6, N-(6-chlorobenzo[d]thiazol-2-yl)benzamide] | > 50% |
| O=C(Nc1nc2ccc(Cl)cc2s1)c1ccccc1F [C7, N-(6-chlorobenzo[d]thiazol-2-yl)-2-fluorobenzamide] | 48.28 ± 0.37% |
| COc1cc(CN(Cc2cc(OC)cc(OC)c2)c2nc3ccc(Cl)cc3s2)cc(OC)c1 [D1, 6-chloro-N,N-bis(3,5-dimethoxybenzyl)benzo[d]thiazol-2-amine] | 32.7 ± 1.25% |

same assay, conditions: Homo sapiens, NCI-H1299, 48 h, read-out: IC50 (mean ± SD) H1299

| Compound | IC50 |
| --- | --- |
| COc1ccc(C(=O)Nc2nc3ccc(Cl)cc3s2)cc1 [C5, N-(6-chlorobenzo[d]thiazol-2-yl)-4-methoxybenzamide] | 8.94 ± 1.21 µM |
| O=C(Nc1nc2ccc(Cl)cc2s1)c1ccccc1 [C6, N-(6-chlorobenzo[d]thiazol-2-yl)benzamide] | 9.02 ± 0.37 µM |

system: Beas-2b cells; experiment: MTT cell proliferation and toxicity assay, Beas-2b; type: cell-based, human; settings: Homo sapiens, BEAS-2B, 48 h, read-out: Beas-2b cells inhibition rate
Method: as §1

| Compound | inhibition at 10 µM |
| --- | --- |
| COc1ccc(C(=O)Nc2nc3ccc(F)cc3s2)cc1OC [C3, N-(6-fluorobenzo[d]thiazol-2-yl)-3,4-dimethoxybenzamide] | 21.3 ± 1.62% |
| O=C(Nc1nc2ccc(F)cc2s1)c1ccc([N+](=O)[O-])cc1 [C4, N-(6-fluorobenzo[d]thiazol-2-yl)-4-nitrobenzamide] | 13.4 ± 1.65% |
| COc1ccc(C(=O)Nc2nc3ccc(Cl)cc3s2)cc1 [C5, N-(6-chlorobenzo[d]thiazol-2-yl)-4-methoxybenzamide] | 17.2 ± 1.24% |
| O=C(Nc1nc2ccc(Cl)cc2s1)c1ccccc1 [C6, N-(6-chlorobenzo[d]thiazol-2-yl)benzamide] | 20.6 ± 0.52% |
| O=C(Nc1nc2ccc(Cl)cc2s1)c1ccccc1F [C7, N-(6-chlorobenzo[d]thiazol-2-yl)-2-fluorobenzamide] | 21.4 ± 2.25% |
| COc1cc(CN(Cc2cc(OC)cc(OC)c2)c2nc3ccc(Cl)cc3s2)cc(OC)c1 [D1, 6-chloro-N,N-bis(3,5-dimethoxybenzyl)benzo[d]thiazol-2-amine] | 19.3 ± 1.31% |
